Values quoted from earlier work as cited in patent publication US11236258B2, “Aqueous based dust control compositions and methods” (Trican Well Service Ltd, priority 2018, dated 2022).

Legend:
[1] = within 14 days

Structure (SMILES)	solubility in water [µg/mL]	measured solubility in water [µg/mL]	biodegradation, degradation [1] [%]
C[N+](C)(C)CCOP(=O)(O)OCC(O)CO (stereo not shown) [GPC, glycerophosphocholine]	4040		
C[N+](C)(C)CCO.[Cl-] [Choline chloride, choline chloride]		650000	93
C[N+](C)(C)CCO [CHO, choline]	3610		
